US10160747B2, “Compounds and methods for kinase modulation, and indications therefor” (Plexxikon Inc., priority 2016, dated 2018)

What was measured:
[1] = tested on: MOLM-14 D835Y (endogenous FLT3 ITD and transfected FLT3 D835Y); test: MOLM-14 D835Y cell proliferation assay (CellTiter-Glo); type: cell-based; settings: Homo sapiens, MOLM-14, 72 h; 3 d growth, GMean
From the text: (§1) The FLT3 inhibitors may be assessed using the MOLM-14, Acute Myeloid Leukemia cell line that endogenously expresses FLT3 ITD or derivatives of the human FLT3 AML cell line which acquired the D835Y (activation loop) of F691L (gatekeeper) mutation after selection in escalating doses of the FLT3 Inhibitor AC220. FLT3 inhibitors may also be assessed using cells that are engineered to express mutant FLT3. For engineered cells, murine Ba/F3 cells were transfected with full-length FLT3 ITD/D835Y mutations. The parental BA/F3 cells are dependent upon Interleukin-3 (IL-3) for survival, and introduction of the FLT3 constructs rendered these cells dependent upon FLT3 kinase activity when cultured in the absences of IL-3. Engineered BA/F3 cell growth assays can be performed in either the […] of IL-3, to assess the compound inhibition of FLT3 or to detect the presence of off-target activity, respectively. Inhibitors of FLT3 kinase activity reduce or eliminate the FLT3 oncogenic signaling, resulting in reduced cell proliferation. This inhibition is measured as a function of compound concentration to assess IC50 values.
(§2) Cell lines used in proliferation assays are as follows in Table 2:
(§3) Cells were seeded at 1×10^4 cells per well of a 96 well cell culture plate in 50 μl of cell culture medium. Compounds were dissolved in DMSO, typically at a concentration of 0.5 mM and were serially diluted 1:3 for a total of eight points and added to the cells to final concentrations of […], 0.0041, 0.0014 and 0.00046 μM in 100 μl cell culture medium (final concentration 0.2% DMSO). […] The cells were incubated at 37° C., 5% CO2 for three days. CellTiter-Glo Buffer (Promega Cell Viability Assay catalog #G7573) and substrate were equilibrated to room temperature, and enzyme/substrate Recombinant Firefly Luciferase/Beetle Luciferin was reconstituted. The cell plates were equilibrated to room temperature for 30 minutes, then lysed by addition of an equivalent volume of the Celltiter-Glo Reagent. The plate was mixed for 10 minutes on a plate shaker to lyse the cells. The plates were read on a Tecan M1000 using Luminescence protocol modified to read 0.1 s per well. The luminescence reading assesses the ATP content, which correlates directly with cell number such that the reading as a function of compound concentration was used to determine the IC50 value.

[2] = tested on: MOLM-14 F691L (endogenous FLT3 ITD and transfected FLT3 F691L); test: MOLM-14 F691L cell proliferation assay (CellTiter-Glo); type: cell-based; settings: Homo sapiens, MOLM-14, 72 h; 3 d growth, GMean
From the text: as §1, §2, §3

BA/F3-FLT3-ITD + D835Y = target: T1, BA/F3-FLT3-ITD + D835Y (Homo sapiens, UniProt P36888, D835Y, cells depend on it, form not given); test: Engineered BA/F3 cell growth assay, FLT3 ITD/D835Y; type: cell-based, murine; settings: 3 d growth
T1 sequence (P36888 with tags, fused parts or gaps INS600HVDFREYEYD/D835Y): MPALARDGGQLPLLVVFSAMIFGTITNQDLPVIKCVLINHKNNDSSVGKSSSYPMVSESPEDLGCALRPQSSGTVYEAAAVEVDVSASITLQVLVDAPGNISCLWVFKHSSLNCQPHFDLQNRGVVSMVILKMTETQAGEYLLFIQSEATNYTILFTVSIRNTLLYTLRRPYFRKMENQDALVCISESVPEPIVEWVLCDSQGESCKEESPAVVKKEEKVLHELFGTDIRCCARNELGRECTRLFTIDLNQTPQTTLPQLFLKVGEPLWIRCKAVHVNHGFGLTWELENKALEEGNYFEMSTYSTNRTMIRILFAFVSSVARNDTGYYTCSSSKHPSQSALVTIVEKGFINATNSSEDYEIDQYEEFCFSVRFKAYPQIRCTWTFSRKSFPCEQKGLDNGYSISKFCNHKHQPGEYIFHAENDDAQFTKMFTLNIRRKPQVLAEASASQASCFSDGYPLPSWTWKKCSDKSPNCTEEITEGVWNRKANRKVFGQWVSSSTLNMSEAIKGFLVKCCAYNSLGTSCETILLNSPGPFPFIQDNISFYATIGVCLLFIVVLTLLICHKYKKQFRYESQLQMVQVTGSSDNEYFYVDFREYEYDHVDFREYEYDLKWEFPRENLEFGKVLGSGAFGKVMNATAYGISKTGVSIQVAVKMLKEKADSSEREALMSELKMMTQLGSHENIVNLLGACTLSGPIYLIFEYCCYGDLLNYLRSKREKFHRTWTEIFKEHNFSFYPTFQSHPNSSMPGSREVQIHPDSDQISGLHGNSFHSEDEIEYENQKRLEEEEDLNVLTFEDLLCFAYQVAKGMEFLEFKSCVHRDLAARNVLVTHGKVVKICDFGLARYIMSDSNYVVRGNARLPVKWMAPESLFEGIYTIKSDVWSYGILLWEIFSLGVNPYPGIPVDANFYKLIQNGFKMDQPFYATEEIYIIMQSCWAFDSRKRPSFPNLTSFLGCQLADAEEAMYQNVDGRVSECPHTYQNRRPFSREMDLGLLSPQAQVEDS
From the text: as §1, §2, §3
The BaF3 assays as developed used to generate the data in Tables 7 and 8 are identical and differ only in minor details in regards to vector design, not biological function. Both introduce the FLT3 gene with MV4-11 based ITD duplications and resistance mutations from an exogenous promoter (MSCV and CMV respectively) in the exact same cell line.
As a result of the expressed FLT3 protein, the IL3 factor dependent BaF3 cell clones become IL3-factor independent.
The compounds in Tables 7 and 8 were tested in an identical fashion by incubating such clones in with increasing concentrations. Inhibition of the FLT3 activity by an inhibitor results in factor dependency, which in the absence of IL3 results in cell death in the three day growth assays.

c-KIT = target: T2, c-KIT (Homo sapiens, UniProt P10721); test: c-KIT recombinant enzyme kinase assay (AlphaScreen); type: biochemical; settings: 100 ATP, 8 pt
T2 construct: purchased Millipore 14-559K
T2 sequence (P10721 26-976): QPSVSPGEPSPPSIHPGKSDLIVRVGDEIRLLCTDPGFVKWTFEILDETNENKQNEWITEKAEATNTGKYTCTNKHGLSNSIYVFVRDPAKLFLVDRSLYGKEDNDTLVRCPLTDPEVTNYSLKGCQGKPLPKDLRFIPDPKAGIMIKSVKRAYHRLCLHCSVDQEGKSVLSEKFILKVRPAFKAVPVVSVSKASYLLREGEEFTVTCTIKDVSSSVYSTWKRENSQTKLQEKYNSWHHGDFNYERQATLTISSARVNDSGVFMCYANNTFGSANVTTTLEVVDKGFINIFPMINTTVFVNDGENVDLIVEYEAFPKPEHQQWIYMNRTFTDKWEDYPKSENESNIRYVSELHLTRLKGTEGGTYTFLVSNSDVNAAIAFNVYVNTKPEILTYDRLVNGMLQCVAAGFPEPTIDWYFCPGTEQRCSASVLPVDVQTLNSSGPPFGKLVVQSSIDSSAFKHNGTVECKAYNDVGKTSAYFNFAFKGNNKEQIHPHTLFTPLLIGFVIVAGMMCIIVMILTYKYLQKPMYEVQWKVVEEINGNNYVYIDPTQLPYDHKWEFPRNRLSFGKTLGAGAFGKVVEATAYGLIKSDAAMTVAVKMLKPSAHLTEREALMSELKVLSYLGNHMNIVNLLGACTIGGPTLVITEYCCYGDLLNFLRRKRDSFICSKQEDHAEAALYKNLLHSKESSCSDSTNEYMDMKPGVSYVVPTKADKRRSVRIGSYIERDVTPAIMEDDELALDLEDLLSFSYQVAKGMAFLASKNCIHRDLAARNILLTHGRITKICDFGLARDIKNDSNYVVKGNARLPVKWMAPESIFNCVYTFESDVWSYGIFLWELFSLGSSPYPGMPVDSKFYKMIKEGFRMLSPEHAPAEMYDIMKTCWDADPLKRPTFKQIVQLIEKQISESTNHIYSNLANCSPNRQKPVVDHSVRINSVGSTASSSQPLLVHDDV
Procedure: In order to determine the effect of compounds on FLT3 catalytic activity, kinase assays using recombinant enzymes and AlphaScreen® technology have been established. The catalytic activity of c-kit activity was also measured to determine selectivity of the compounds. When the kinases are catalytically active, they phosphorylate a biotinylated peptide substrate on tyrosine residues. Using AlphaScreen® technology, the ability of the compounds to affect the catalytic activity of the kinases can be measured quantitatively. The peptide substrate is immobilized by the AlphaScreen® Streptavidin Donor beads and, upon phosphorylation by a tyrosine kinase, can bind to AlphaScreen® Anti-Phosphotyrosine (PY20) Acceptor beads. Upon excitation of these beads with laser light at 680 nm, singlet oxygen is produced. This singlet oxygen is rapidly quenched, unless the AlphaScreen® Anti-Phosphotyrosine (PY20) Acceptor beads are in close proximity, in which case a proximity signal can be measured at 580 nm. In the presence of catalytic activity, there is a very strong proximity signal. Selective kinase inhibitors affect a decrease in this proximity signal through a decrease in tyrosine phosphorylation of the peptide substrate.
The assay was performed as summarized below.
Poly (Glu4-Tyr) Peptide, biotin conjugate [Biotin-GG(EEEEY)10EE] (SEQ ID NO: 4)
Final concentration=30 nM
Adenosine Triphosphate (ATP)
Final concentration for IC50 determination=10 μM (FLT3-D835Y or FLT3-ITD) or 100 μM (c-KIT)
AlphaScreen® Phosphotyrosine (PY20) Assay Kit
Final concentration=10 μg/mL
Dilute compounds in DMSO to 20× final concentration.
Add 1 μL of compound to each well of 384 well reaction plate (Perkin Elmer #6005359).
Mix enzyme and Poly (Glu4-Tyr) Peptide substrate at 1.33× final concentration in assay buffer.
Mix ATP at 5× final concentration in assay buffer.
Add 15 μL enzyme/substrate mixture to the reaction plate.
Add 4 μL of ATP to the reaction plate.
Mix Streptavidin Donor beads at 6× final concentration in Stop/Detection buffer.
Add 5 μL Streptavidin Donor beads to the reaction plate. Centrifuge 1 minute, shake to mix, and incubate at room temperature for 20 minutes.
Mix Anti-Phosphotyrosine (PY20) Acceptor beads at 6× final concentration in Stop/Detection buffer.
Add 5 μL Anti-Phosphotyrosine (PY20) beads to the reaction plate.
Centrifuge 1 minute, shake to mix, and incubate at room temperature for 60 minutes.
Read plate on Wallac EnVision™ 2103 Multilabel Reader.

CCC(=O)c1c[nH]c2ncc(-c3ccc(CC(=O)Nc4cnc(OC)c(C(F)(F)F)c4)c(F)c3)cc12 [Compound P-0049, 2-[2-fluoro-4-(3-propanoyl-1H-pyrrolo[2,3-b]pyridin-5-yl)phenyl]-N-[6-methoxy-5-(trifluoromethyl)-3-pyridyl]acetamide]
0.0001 to 10 µM: IC50 [1] | IC50 [2] | GI50 (BA/F3-FLT3-ITD + D835Y) | IC50 (c-KIT)

O=C(Cc1cc(F)c(-c2cnc3[nH]c(-c4ccnc(N5CCOCC5)c4)cc3c2)cc1F)Nc1cc(C(F)(F)F)ccn1 [Compound P-0190, 2-[2,5-difluoro-4-[2-(2-morpholino-4-pyridyl)-1H-pyrrolo[2,3-b]pyridin-5-yl]phenyl]-N-[4-(trifluoromethyl)-2-pyridyl]acetamide]
0.0001 to 10 µM: IC50 [1] | IC50 [2] | GI50 (BA/F3-FLT3-ITD + D835Y)

Cn1cc(Nc2ncc(-c3ccc(CC(=O)NCc4cc(F)ccc4Cl)cc3)cn2)cn1 [Compound P-0124, N-[(2-chloro-5-fluoro-phenyl)methyl]-2-[4-[2-[(1-methylpyrazol-4-yl)amino]pyrimidin-5-yl]phenyl]acetamide]
0.0001 to 10 µM: IC50 [1] | IC50 [2] | GI50 (BA/F3-FLT3-ITD + D835Y)

Cn1cc(Nc2ncc(-c3ccc(CC(=O)Nc4cc(C(C)(F)F)ccn4)cc3)cn2)cn1 [Compound P-0147, N-[4-(1,1-difluoroethyl)-2-pyridyl]-2-[4-[2-[(1-methylpyrazol-4-yl)amino]pyrimidin-5-yl]phenyl]acetamide]
0.0001 to 10 µM: IC50 [1] | IC50 [2] | GI50 (BA/F3-FLT3-ITD + D835Y)

COc1ncc(NC(=O)Cc2cc(F)c(-c3cnc(Nc4cn[nH]c4)nc3)cc2F)cc1C(F)(F)F [Compound P-0226, 2-[2,5-difluoro-4-[2-(1H-pyrazol-4-ylamino)pyrimidin-5-yl]phenyl]-N-[6-methoxy-5-(trifluoromethyl)-3-pyridyl]acetamide]
0.0001 to 10 µM: IC50 [1] | IC50 [2] | GI50 (BA/F3-FLT3-ITD + D835Y)

Cn1cc(Nc2ncc(-c3ccc(CC(=O)Nc4ccnc(C(C)(C)C)c4)cc3)cn2)cn1 [Compound P-0112, N-(2-tert-butyl-4-pyridyl)-2-[4-[2-[(1-methylpyrazol-4-yl)amino]pyrimidin-5-yl]phenyl]acetamide]
0.0001 to 10 µM: IC50 [1] | IC50 [2] | GI50 (BA/F3-FLT3-ITD + D835Y)

Cn1cc(Nc2ncc(-c3ccc(CC(=O)Nc4ccc(C#N)c(C(F)(F)F)c4)cc3)cn2)cn1 [Compound P-0113, N-[4-cyano-3-(trifluoromethyl)phenyl]-2-[4-[2-[(1-methylpyrazol-4-yl)amino]pyrimidin-5-yl]phenyl]acetamide]
0.0001 to 10 µM: IC50 [1] | IC50 [2] | GI50 (BA/F3-FLT3-ITD + D835Y)

COc1ncc(NC(=O)Cc2ccc(-c3cnc(Nc4cnn(C(F)F)c4C)nc3)cc2)cc1C(F)(F)F [Compound P-0039, 2-[4-[2-[[1-(difluoromethyl)-5-methyl-pyrazol-4-yl]amino]pyrimidin-5-yl]phenyl]-N-[6-methoxy-5-(trifluoromethyl)-3-pyridyl]acetamide]
0.0001 to 10 µM: IC50 [1] | IC50 [2] | GI50 (BA/F3-FLT3-ITD + D835Y)

COCC#Cc1cc2cc(-c3ccc(CC(=O)Nc4cnc(OC)c(C(F)(F)F)c4)cc3)cnc2[nH]1 [Compound P-0056, 2-[4-[2-(3-methoxyprop-1-ynyl)-1H-pyrrolo[2,3-b]pyridin-5-yl]phenyl]-N-[6-methoxy-5-(trifluoromethyl)-3-pyridyl]acetamide]
0.0001 to 10 µM: IC50 [1] | IC50 [2] | GI50 (BA/F3-FLT3-ITD + D835Y)

Cn1cc(Nc2ncc(-c3ccc(CC(=O)Nc4cc(C(C)(F)F)ccn4)c(F)c3)cn2)cn1 [Compound P-0093, N-[4-(1,1-difluoroethyl)-2-pyridyl]-2-[2-fluoro-4-[2-[(1-methylpyrazol-4-yl)amino]pyrimidin-5-yl]phenyl]acetamide]
0.0001 to 10 µM: IC50 [1] | IC50 [2] | GI50 (BA/F3-FLT3-ITD + D835Y)
